Source: ChEMBL document CHEMBL3217722, “Synthesis of hybrid 4-anilinoquinoline triazines as potent antimalarial agents, their in silico modeling and bioevaluation as Plasmodium falciparumtransketolase and -hematin inhibitors” (Medchemcomm, 2012)
≈ marks a conversion by molar mass, not a printed value. Calls of active or inactive are those of the source. The rule behind the calls is not given here.

What was measured:
[1] = Selectivity index, ratio of IC50 for African green monkey Vero cells to IC50 for Plasmodium falciparum; format: toxicity, cell-based; settings: read-out: Ratio IC50
[2] = tested on: Plasmodium falciparum; test: Antiplasmodial activity against chloroquine-sensitive Plasmodium falciparum 3D7 after 72 hrs by SYBR Green-1 dye-based fluorescence assay; format: functional, organism-based; settings: 3D7, 72 h
[3] = tested on: Plasmodium yoelii; test: Inhibition of beta-hematin formation in Plasmodium yoelii infected Swiss mouse plasma after 16 hrs; format: functional
[4] = tested on: Plasmodium falciparum; test: Antiplasmodial activity against chloroquine-resistant Plasmodium falciparum K1 after 72 hrs by SYBR Green-1 dye-based fluorescence assay; format: functional, organism-based; settings: K1, 72 h
[5] = tested on: Plasmodium yoelii; test: Antimalarial activity against chloroquine-resistant Plasmodium yoelii N-67 infected in Swiss mouse assessed as mouse survival at 100 mg/kg, po qd for 4 days measured on day 28; format: functional, organism-based; design: dose 100 mg/kg
[6] = tested on: Plasmodium yoelii; test: Antimalarial activity against chloroquine-resistant Plasmodium yoelii N-67 infected in Swiss mouse assessed as inhibition of parasitemia at 100 mg/kg, po qd for 4 days relative to control; format: functional; settings: N-67, 96 h
[7] = Inhibition of Plasmodium falciparum transketolase using fructose-6-phosphate as substrate by spectrophotometric analysis
[8] = tested on: Plasmodium yoelii; test: Antimalarial activity against chloroquine-resistant Plasmodium yoelii N-67 infected in Swiss mouse assessed as mouse survival at 50 mg/kg, po qd for 4 days measured on day 28; format: functional, organism-based; design: dose 50 mg/kg
[9] = tested on: Plasmodium yoelii; test: Antimalarial activity against chloroquine-resistant Plasmodium yoelii N-67 infected in Swiss mouse assessed as inhibition of parasitemia at 50 mg/kg, po qd for 4 days relative to control; format: functional; settings: N-67, 96 h

| Compound | selectivity ratio [1] | IC50 [2] [µg/mL] | IC50 [3] [µg/mL] | IC50 [4] [µg/mL] | Activity [5] | inhibition in vivo at 100 mg/kg [6] [%] | IC50 [7] [µM] | Activity [8] | inhibition in vivo at 50 mg/kg [9] [%] |
| --- | --- | --- | --- | --- | --- | --- | --- | --- | --- |
| COc1ccc(Nc2nc(Nc3ccc(Nc4ccnc5cc(Cl)ccc45)cc3)nc(N3CCN(C)CC3)n2)cc1OC | 169 | 0.00504 (≈ 0.00843 µM) | 3.05 (≈ 5.1 µM) | 0.00486 (≈ 0.00813 µM) |  |  |  |  |  |
| Fc1cccc(Nc2nc(NCCN3CCOCC3)nc(Nc3ccc(Nc4ccnc5cc(Cl)ccc45)cc3)n2)c1 | 122 | 0.04 (≈ 0.0683 µM) | 2.7 (≈ 4.61 µM) | 0.0781 (≈ 0.133 µM) |  |  |  |  |  |
| CN1CCN(c2nc(Nc3ccc(Cl)cc3)nc(Nc3ccc(Nc4ccnc5cc(Cl)ccc45)cc3)n2)CC1 | 66.7 | 0.0078 (≈ 0.0136 µM) | 2.17 (≈ 3.79 µM) | 0.0352 (≈ 0.0614 µM) | inactive | 100 |  |  |  |
| COc1cccc(Nc2nc(Nc3ccc(Nc4ccnc5cc(Cl)ccc45)cc3)nc(N3CCN(C)CC3)n2)c1 | 117 | 0.00426 (≈ 0.0075 µM) | 2.05 (≈ 3.61 µM) |  |  |  |  |  |  |
| Clc1ccc2c(Nc3ccc(Nc4nc(NCCCN5CCOCC5)nc(N5CCCc6ccccc65)n4)cc3)ccnc2c1 | 440 | 0.0147 (≈ 0.0236 µM) | 2.4 (≈ 3.86 µM) | > 0.5 |  |  |  |  |  |
| Clc1cccc(Nc2nc(NCCN3CCOCC3)nc(Nc3ccc(Nc4ccnc5cc(Cl)ccc45)cc3)n2)c1 | 101 | 0.0306 (≈ 0.0508 µM) | 2.01 (≈ 3.34 µM) | 0.00649 (≈ 0.0108 µM) |  |  |  |  |  |
| O=C(O)C(=O)Cc1ccc(O)cc1 [4-HYDROXYPHENYLPYRUVIC ACID] |  |  |  |  |  |  | 103 |  |  |
| Clc1ccc2c(Nc3ccc(Nc4nc(NCCN5CCOCC5)nc(N5CCOCC5)n4)cc3)ccnc2c1 | 41.6 | 0.00587 (≈ 0.0104 µM) | 9.82 (≈ 17.5 µM) | 0.0532 (≈ 0.0946 µM) |  |  |  |  |  |
| Clc1ccc2c(Nc3ccc(Nc4nc(NCCCN5CCOCC5)nc(N5CCOCC5)n4)cc3)ccnc2c1 | 3320 | 0.00276 (≈ 0.00479 µM) | 2.98 (≈ 5.17 µM) | 0.00266 (≈ 0.00462 µM) |  | 100 |  | inactive | 98.4 |
| Fc1cccc(Nc2nc(Nc3ccc(Nc4ccnc5cc(Cl)ccc45)cc3)nc(N3CCCCC3)n2)c1 | 75.1 | 0.129 (≈ 0.238 µM) | 3.1 (≈ 5.73 µM) | 0.107 (≈ 0.197 µM) |  |  |  |  |  |
| CN1CCN(c2nc(Nc3ccc(Nc4ccnc5cc(Cl)ccc45)cc3)nc(N3CCCc4ccccc43)n2)CC1 | 74.4 | 0.0126 (≈ 0.0219 µM) | 2.48 (≈ 4.29 µM) | 0.0682 (≈ 0.118 µM) |  |  |  |  |  |
| COc1ccc(Nc2nc(NCCCN3CCOCC3)nc(Nc3ccc(Nc4ccnc5cc(Cl)ccc45)cc3)n2)cc1 | 1310 | 0.00381 (≈ 0.00622 µM) | 2.34 (≈ 3.82 µM) | 0.155 (≈ 0.253 µM) |  |  | 72.7 |  |  |
| Clc1ccc2c(Nc3ccc(Nc4nc(NCCN5CCOCC5)nc(N5CCCc6ccccc65)n4)cc3)ccnc2c1 | 588 | 0.0174 (≈ 0.0285 µM) | 2.31 (≈ 3.8 µM) | 0.275 (≈ 0.452 µM) |  |  |  |  |  |
| CN1CCN(c2nc(Nc3ccc(Nc4ccnc5cc(Cl)ccc45)cc3)nc(N3CCc4ccccc4C3)n2)CC1 | 48.4 | 0.0281 (≈ 0.0486 µM) | 2.81 (≈ 4.86 µM) |  |  |  |  |  |  |
| CN1CCN(c2nc(Nc3ccc(Nc4ccnc5cc(Cl)ccc45)cc3)nc(N3CCOCC3)n2)CC1 | 121 | 0.00322 (≈ 0.00605 µM) | 6.5 (≈ 12.2 µM) | 0.00286 (≈ 0.00538 µM) |  |  |  |  |  |
| CN1CCN(c2nc(Nc3ccc(Nc4ccnc5cc(Cl)ccc45)cc3)nc(Nc3cccc(F)c3)n2)CC1 | 55.3 | 0.0228 (≈ 0.041 µM) | 3.03 (≈ 5.45 µM) | 0.00154 (≈ 0.00277 µM) | inactive | 100 |  | inactive | 99.8 |
| CCN1CCN(c2nc(Nc3ccc(Nc4ccnc5cc(Cl)ccc45)cc3)nc(Nc3cccc(OC)c3)n2)CC1 | 73 | 0.0089 (≈ 0.0153 µM) | 2.25 (≈ 3.87 µM) |  |  |  |  |  |  |
| CCN1CCN(c2nc(Nc3ccc(Nc4ccnc5cc(Cl)ccc45)cc3)nc(Nc3ccc(OC)c(OC)c3)n2)CC1 | 624 | 0.00258 (≈ 0.00421 µM) | 2.45 (≈ 4 µM) | 0.0023 (≈ 0.00376 µM) |  |  | 85.5 |  |  |
| CCN1CCN(c2nc(Nc3ccc(F)cc3)nc(Nc3ccc(Nc4ccnc5cc(Cl)ccc45)cc3)n2)CC1 | 88.2 | 0.0111 (≈ 0.0195 µM) | 2.64 (≈ 4.63 µM) | 0.0198 (≈ 0.0347 µM) |  |  |  |  |  |
